Assay results published in publication PMC9587005, “Phosphatidic Acid Mediates the Nem1-Spo7/Pah1 Phosphatase Cascade in Yeast Lipid Synthesis” (Journal of Lipid Research, 2022).

Target: T1, Nem1-Spo7 protein phosphatase complex (Saccharomyces cerevisiae, UniProt P38757)
T1 construct: Protein A-tagged Nem1 with Spo7, overexpressed in S. cerevisiae RS453, IgG-Sepharose purified, reconstituted into phospholipid vesicles
T1 sequence (P38757 1-446): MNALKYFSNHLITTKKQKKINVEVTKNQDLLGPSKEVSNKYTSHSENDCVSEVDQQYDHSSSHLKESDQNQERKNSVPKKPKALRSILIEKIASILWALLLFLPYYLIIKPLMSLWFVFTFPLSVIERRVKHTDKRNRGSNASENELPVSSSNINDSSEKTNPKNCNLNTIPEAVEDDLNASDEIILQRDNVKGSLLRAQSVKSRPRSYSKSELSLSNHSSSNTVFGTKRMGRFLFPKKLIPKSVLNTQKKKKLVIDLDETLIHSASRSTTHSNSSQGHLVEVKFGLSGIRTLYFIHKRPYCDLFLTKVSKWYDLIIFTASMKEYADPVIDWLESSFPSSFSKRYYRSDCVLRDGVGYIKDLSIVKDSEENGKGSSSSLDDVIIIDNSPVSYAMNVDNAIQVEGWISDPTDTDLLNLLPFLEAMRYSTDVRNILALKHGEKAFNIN
T1 sequence (P18410 1-259 partner): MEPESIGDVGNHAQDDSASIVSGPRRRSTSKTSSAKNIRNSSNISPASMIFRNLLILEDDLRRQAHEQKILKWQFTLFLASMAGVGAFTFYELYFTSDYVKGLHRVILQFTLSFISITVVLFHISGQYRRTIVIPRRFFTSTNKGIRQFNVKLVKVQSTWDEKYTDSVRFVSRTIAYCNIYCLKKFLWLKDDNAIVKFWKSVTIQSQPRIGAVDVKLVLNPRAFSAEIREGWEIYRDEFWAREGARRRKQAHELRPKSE
Experiment: release of […] from […]Pah1, proteoliposomes
Assay type: biochemical
Settings: activator (cooperative), direct binding not shown, membrane effect possible; reconstituted in PC/PE/PI/PS vesicles; substrate Pah1 phosphorylated by Pho85-Pho80; 10 mM MgCl2, pH 5.0, 30 °C

fold stimulation at 10 mol %: 3.6 fold
SMILES: CCCCCCCC/C=C\CCCCCCCC(=O)OC[C@H](COP(=O)(O)O)OC(=O)CCCCCCC/C=C\CCCCCCCC [PA]
